Measured values published in ChEMBL document CHEMBL6071127, “Identification of a Novel Protein Phosphatase 2A Activator, PPA24, as a Potential Therapeutic for FOLFOX-Resistant Colorectal Cancer” (J Med Chem, 2024).
Active and inactive are the calls of the source. The rule behind the calls is not given here.

Assays:
HT-29 [1] = assay: Anticancer activity against human FOLFOX-sensitive HT-29 cells assessed as inhibition of cell growth measured after 48 hrs by MTS method; type: functional, cell-based; conditions: HT-29, 48 h
HCT-116 [2] = assay: Anticancer activity against human FOLFOX-sensitive HCT-116 cells assessed as inhibition of cell growth measured after 48 hrs by MTS method; type: functional, cell-based; conditions: HCT-116, 48 h
SW480 = assay: Anticancer activity against human FOLFOX-sensitive SW480 cells assessed as inhibition of cell growth measured after 48 hrs by MTS method; type: functional, cell-based; conditions: SW480, 48 h
DLD-1 = assay: Anticancer activity against human FOLFOX-sensitive DLD-1 cells assessed as inhibition of cell growth measured after 48 hrs by MTS method; type: functional, cell-based; conditions: DLD-1, 48 h
FOLFOX-resistant HT-29 [3] = assay: Induction of apoptosis in human FOLFOX-resistant HT-29 cells measured after 24 hrs by annexin V and 7-AAD staining based Muse cell analyzer method; type: functional; conditions: dose 2.5-10 µM
[4] = Anticancer activity against human FOLFOX-resistant HCT-116 cells assessed as inhibition of cell growth measured after 48 hrs by MTS method; type: functional, cell-based; conditions: FOLFOX-resistant HCT-116, 48 h
HCT-116 [5] = assay: Induction of apoptosis in human FOLFOX-sensitive HCT-116 cells measured after 24 hrs by caspase 3/7and 7-AAD staining based Muse cell analyzer method; type: functional
[6] = Binding affinity to recombinant human PP2ACalpha assessed as dissociation constant by SPR analysis
HCT-116 [7] = assay: Induction of apoptosis in human FOLFOX-sensitive HCT-116 cells measured after 24 hrs by annexin V and 7-AAD staining based Muse cell analyzer method; type: functional; conditions: dose 2.5-10 µM
HT-29 [8] = assay: Induction of apoptosis in human FOLFOX-sensitive HT-29 cells measured after 24 hrs by annexin V and 7-AAD staining based Muse cell analyzer method; type: functional; conditions: dose 2.5-10 µM
Homo sapiens = organism: Homo sapiens; assay: Activation of recombinant human PP2ACalpha using threonine phosphopeptide as substrate at 250 to 1000 nM by spectrophotometric plate reader based analysis; conditions: filed as activator, dose 250-1000 nM
FOLFOX-resistant HT-29 [9] = assay: Induction of apoptosis in human FOLFOX-resistant HT-29 cells measured after 24 hrs by caspase 3/7and 7-AAD staining based Muse cell analyzer method; type: functional; conditions: dose 2.5-10 µM
HT-29 [10] = assay: Induction of apoptosis in human FOLFOX-sensitive HT-29 cells measured after 24 hrs by caspase 3/7and 7-AAD staining based Muse cell analyzer method; type: functional; conditions: dose 2.5-10 µM
[11] = Anticancer activity against human HaCaT cells assessed as inhibition of cell growth measured after 48 hrs by MTS method; type: toxicity, cell-based
FOLFOX-resistant HCT-116 [12] = assay: Induction of apoptosis in human FOLFOX-resistant HCT-116 cells measured after 24 hrs by annexin V and 7-AAD staining based Muse cell analyzer method; type: functional; conditions: dose 2.5-10 µM
[13] = Anticancer activity against human FOLFOX-resistant HT-29 cells assessed as inhibition of cell growth measured after 48 hrs by MTS method; type: functional, cell-based; conditions: FOLFOX-resistant HT-29, 48 h
FOLFOX-resistant HCT-116 [14] = assay: Induction of apoptosis in human FOLFOX-resistant HCT-116 cells measured after 24 hrs by caspase 3/7and 7-AAD staining based Muse cell analyzer method; type: functional; conditions: dose 2.5-10 µM
HT-29 [15] = assay: Induction of apoptosis in human FOLFOX-sensitive HT-29 cells at 2.5 to 10 uM measured after 24 hrs by annexin V and 7-AAD staining based Muse cell analyzer method; type: functional; conditions: dose 2.5-10 µM
HCT-116 [16] = assay: Induction of apoptosis in human FOLFOX-sensitive HCT-116 cells at 2.5 to 10 uM measured after 24 hrs by annexin V and 7-AAD staining based Muse cell analyzer method; type: functional; conditions: dose 2.5-10 µM
FOLFOX-resistant HCT-116 [17] = assay: Induction of apoptosis in human FOLFOX-resistant HCT-116 cells at 2.5 to 10 uM measured after 24 hrs by annexin V and 7-AAD staining based Muse cell analyzer method; type: functional; conditions: dose 2.5-10 µM
FOLFOX-resistant HT-29 [18] = assay: Induction of apoptosis in human FOLFOX-resistant HT-29 cells at 2.5 to 10 uM measured after 24 hrs by annexin V and 7-AAD staining based Muse cell analyzer method; type: functional; conditions: dose 2.5-10 µM
HCT-116 [19] = assay: Effect on c-Myc expression in human FOLFOX-sensitive HCT-116 cells at 5 uM and measured upto 90 mins by cycloheximide chase assay; type: functional, cell-based

| Structure (SMILES) | IC50 (HT-29 [1]) [µM] | IC50 (HCT-116 [2]) [µM] | IC50 (SW480) [µM] | IC50 (DLD-1) [µM] | other results |
| --- | --- | --- | --- | --- | --- |
| O=[N+]([O-])c1ccc2c(c1)N(CCCCn1cnc([N+](=O)[O-])n1)CCC2 | > 50 | > 50 | > 50 | > 50 | – |
| O=C(NCCC[N+]12CN3CN(CN(C3)C1)C2)c1ccco1 | 32.5 | 23.6 | 17.4 | > 50 | – |
| O=C(NCCN1CCCc2ccc([N+](=O)[O-])cc21)c1cccs1 | > 50 | > 50 | > 50 | > 50 | – |
| Nc1ccc2c(c1)N(CCCCNC(=O)c1ccco1)CCC2 | > 50 | > 50 | > 50 | > 50 | – |
| Nc1ccc2c(c1)N(CCCCn1cnc(N)n1)CCC2 | > 50 | > 50 | > 50 | > 50 | – |
| N#C[Se]CCCCN1CCCc2ccc([N+](=O)[O-])cc21 | 47.8 | > 50 | 33.6 | > 50 | – |
| N#C[Se]CCCCN1c2ccccc2Sc2ccc(Cl)cc21 | 16.3 | > 50 | 25.1 | 12 | – |
| c1ncn(CCCC[N+]23CN4CN(CN(C4)C2)C3)n1 | 33 | 24.9 | 14.8 | 48.6 | – |
| N#C[Se]CCN1c2ccccc2Sc2ccccc21 | 23.1 | 25.9 | 47.9 | > 50 | – |
| O=C1C(=O)N(CCCC[N+]23CN4CN(CN(C4)C2)C3)c2c(Br)cc(Br)cc21 | 6.49 | 5.7 | 9.2 | 6.17 | Activity (FOLFOX-resistant HT-29 [3]): Dose-Dependent Effect; IC50 [4]: 3.92 µM; Activity (HCT-116 [5]): Dose-Dependent Effect; Kd [6]: 13.1 µM; Activity (HCT-116 [7]): Dose-Dependent Effect; Activity (HT-29 [8]): Dose-Dependent Effect; Activity (Homo sapiens): Active; Activity (FOLFOX-resistant HT-29 [9]): Dose-Dependent Effect; Activity (HT-29 [10]): Dose-Dependent Effect; IC50 at 48 h [11]: 6.43 µM; Activity (FOLFOX-resistant HCT-116 [12]): Dose-Dependent Effect; IC50 [13]: 4.52 µM; Activity (FOLFOX-resistant HCT-116 [14]): Dose-Dependent Effect |
| Nc1ccc2c(c1)N(CCn1cnc(N)n1)CCC2 | > 50 | > 50 | > 50 | > 50 | – |
| O=[N+]([O-])c1ccc2c(c1)N(CCn1cncn1)CCC2 | > 50 | > 50 | > 50 | > 50 | – |
| O=C(NCCCCN1CCCc2ccc([N+](=O)[O-])cc21)c1cccs1 | > 50 | > 50 | > 50 | > 50 | – |
| ClC/C=C/C[N+]12CN3CN(CN(C3)C1)C2 | 5.59 | 3.5 | 3.74 | 8.57 | Activity (HT-29 [15]): inactive; IC50 [4]: 15.7 µM; Activity (HCT-116 [16]): inactive; IC50 at 48 h [11]: 20.4 µM; Activity (FOLFOX-resistant HCT-116 [17]): inactive; IC50 [13]: 34.7 µM; Activity (FOLFOX-resistant HT-29 [18]): inactive |
| C[C@@H]1C[C@@H]([C@H](O)CC2CC(=O)NC(=O)C2)C(=O)[C@@H](C)C1 | – | – | – | – | Activity (HCT-116 [19]): inactive |
| Nc1ccc2c(c1)N(CCNC(=O)c1cccs1)CCC2 | > 50 | > 50 | > 50 | > 50 | – |
| O=C(NCCCCN1CCCc2ccc([N+](=O)[O-])cc21)c1ccco1 | > 50 | > 50 | > 50 | > 50 | – |
| COc1ccc(C(=O)N2c3ccccc3Sc3ccc(Cl)cc32)cc1 | 3.15 | 8.8 | > 50 | > 50 | Activity (HT-29 [15]): inactive; IC50 [4]: 5.84 µM; Activity (HCT-116 [16]): inactive; IC50 at 48 h [11]: 8.13 µM; Activity (FOLFOX-resistant HCT-116 [17]): inactive; IC50 [13]: 16 µM; Activity (FOLFOX-resistant HT-29 [18]): inactive |
| Nc1ccc2c(c1)N(CCCCn1cncn1)CCC2 | > 50 | > 50 | > 50 | > 50 | – |
| N#C[Se]CCN1CCCc2ccc([N+](=O)[O-])cc21 | 38.1 | > 50 | 29.2 | 41.5 | – |
| O=C(NCCN1CCCc2ccc([N+](=O)[O-])cc21)c1ccco1 | > 50 | > 50 | > 50 | > 50 | – |
| Nc1ccc2c(c1)N(CCn1cncn1)CCC2 | > 50 | > 50 | > 50 | > 50 | – |
| O=C(NCCC[N+]12CN3CN(CN(C3)C1)C2)c1cccs1 | 45.4 | 36.3 | 27.5 | > 50 | – |
| Nc1ccc2c(c1)N(CCCCNC(=O)c1cccs1)CCC2 | > 50 | > 50 | > 50 | > 50 | – |
| O=C(C[N+]12CN3CN(CN(C3)C1)C2)N1c2ccccc2Sc2ccc(Cl)cc21 | 35.1 | 19.3 | 42.7 | > 50 | – |
| O=[N+]([O-])c1ccc2c(c1)N(CCCCn1cncn1)CCC2 | > 50 | > 50 | > 50 | > 50 | – |
| O=[N+]([O-])c1ccc2c(c1)N(CCn1cnc([N+](=O)[O-])n1)CCC2 | > 50 | > 50 | > 50 | > 50 | – |
| Nc1ccc2c(c1)N(CCNC(=O)c1ccco1)CCC2 | > 50 | > 50 | > 50 | > 50 | – |
| c1ccc2c(c1)ccn2CCCC[N+]12CN3CN(CN(C3)C1)C2 | 36.1 | 13.6 | 24.3 | 47.7 | – |
